Laboratory results taken from US20070128589A1, “Substrates, sensors, and methods for assessing conditions in females” (priority 2005, published 2007).
Entries after “also recorded” stand apart in the source; their conditions may differ. No end group written: not given here.

How the values were obtained:
C. albicans [1] = experiment: G11 peptide detection of C. albicans grown in artificial vaginal fluid; assay type: biochemical, Candida albicans; conditions: FIG. 23
C. albicans [2] = experiment: Identification of peptide targets for C. albicans; assay type: biochemical, Candida albicans
Description: Clones of green fluorescent protein (GFP) tagged conjugates were used to identify targets in a high throughput screen. Each clone contained a plasmid harboring a gene that contains a polyhistidine tag (6 his), 30 random nucleotides (corresponding to 10 random amino acids), and green fluorescent protein (GFP). On the day before a screen, 864 glowing clones are grown up overnight at 37° C. in deep well microtiter plates (1 ml/well). In the morning, the cultures can be induced with 1 mM IPTG for 1 hour, the cells can be centrifuged for five minutes, and then the media can be decanted. Lysozyme (2 mg/ml) can be added and the cells can be flash frozen 3 times. The samples can be treated with 100 ul/well of DNAse I at 37° C. for 30 minutes to reduce the viscosity by digesting the DNA. An aliquot of the sample can then be transferred to a microtiter filter plate containing 10 μl of nickel-NTA resin. The pipeting of the reagents (IPTG, lysozyme, DNAse I, and beads) can be performed with a Tecan Genesis RSP 100 Robot with Gemini version 4.0 software.
The plates can be filtered by centrifugation three times with PBS to remove unbound material and then the GFP-peptide-bound bead can be incubated with microbial extract for 20 min at 37° C. The sample can be filtered and the flow through fluorescence can be compared with the background from the prior wash. If the microbe has a protease that finds the ideal target, then the release of GFP fluorescence from the bead can be over 100 times greater than the background.
(SEQ ID NO: 8), the sequence QKTTIKKLKH (H2) (SEQ ID NO: 9), the sequence KPKAFLKVGN (R8) (SEQ ID NO: 6), the sequence TPIQIHTILH (SEQ ID NO: 10), the sequence […] (SEQ ID NO: 11), the sequence […] (SEQ ID NO: 12), and the sequence […] (SEQ ID NO: 13).

[3] = tested on: unidentified protease from Lactobacillus acidophilus; experiment: Peptide-HRP Affigel bead detection of Lactobacillus protease; assay type: biochemical; conditions: FIG. 12
Description: The two putative peptides were synthesized, coupled to Affigel beads (Bio-Rad, Hercules Calif.), and then labeled with horseradish peroxidase in the following manner:
Peptides were coupled to Affigel beads as described by the manufacturer. Similar results were obtained using small latex beads with carboxylic acid groups. Briefly, 1 mg of peptide was incubated with 1 ml of affigel in conjugation buffer (phosphate buffered saline) for 1-2 hours at room temperature. For the small latex beads functionalized with carboxylic acids, the peptides/proteins are coupled with EDC (1-ethyl-3-[3 dimethylaminopropyl] carbodiimide hydrochloride). The beads are either used immediately or conjugated further with HRP-maleimide or stored at 4° C. under a cushion of 2% trehalose or 2% sucrose.
HRP is conjugated to sulfo-SMCC though a reactive primary amine group. The reaction is performed for 1 hour in the presence of 50 mM sodium phosphate buffer (pH 7.4). The functionalized HRP is removed from the unbound sulfo-SMCC by gel filtration using P6 Biogel P polyacrylamide beads, Biorad (Hercules, Calif.) or Sephadex G50 beads (Amersham Biosciences, Piscataway, N.J.). The HRP-maleimide elutes in the void volume, whereas the free sulfo-SMCC elutes very slowly from the column. The HRP binds hemin, and, thus, has a brown color that can be used to quickly identify the void volume containing the HRP-maleimide. […]

Gardnerella vaginalis = experiment: HRP release from Affigel-GV2-HRP beads, ABTS/H2O2 read at 405 nm; assay type: biochemical; conditions: peptide conjugated to HRP on Affigel beads, 5 minutes
Description: Various bacteria were cultured overnight at 37° C. in NYC III media with 5% CO2. A 10% slurry of Affigel-GV2-HRP in PBS was prepared, and 20 μl was added to six wells of a 96-well filter plate (Millipore Multi-screen HTS). Aliquots of the bacteria, including Gardnerella vaginalis, Pseudomonas aeruginosa, E. coli, Streptococcus pyogenes, Enterococcus faecalis, and Staphylococcus aureus, were added (100 μl) to the beads, and the plate was allowed to sit for 5 minutes at ambient temperature. The supernatants were centrifuged into a low-binding assay plate (Coming 3641), and assays for HRP were then run. […]
Gardnerella vaginalis was detected with the peptide PFINETYAKFC (SEQ ID NO: 1) which was conjugated to HRP. […] Alternatively, the color change can be measured on a plate reader at 405 nm.
(§1) FIG. 11 illustrates the specificity of the GV2 (PFINETYAKFC) (SEQ ID NO: 1) peptide for Gardnerella vaginalis over the course of five minutes when incubated with Gardnerella vaginalis, Staphylococcus aureus, Streptococcus pyogenes, Escherichia coli (E. coli), Pseudomonas aeruginosa, and Enterococcus faecalis. The extracts were filtered through microtiter plate filters and the HRP release was measured at 405 nm with ABTS substrate in the presence of hydrogen peroxide (H202).

E. coli = experiment: as above; assay type: biochemical, Escherichia coli; conditions: 5 minutes at ambient temperature
Description: (§2) Various bacteria were cultured overnight at 37° C. in NYC III media with 5% CO2. A 10% slurry of Affigel-GV2-HRP in PBS was prepared, and 20 μl was added to six wells of a 96-well filter plate (Millipore Multi-screen HTS). Aliquots of the bacteria, including Gardnerella vaginalis, Pseudomonas aeruginosa, E. coli, Streptococcus pyogenes, Enterococcus faecalis, and Staphylococcus aureus, were added (100 μl) to the beads, and the plate was allowed to sit for 5 minutes at ambient temperature. The supernatants were centrifuged into a low-binding assay plate (Coming 3641), and assays for HRP were then run. 2,2′-azino-bis(3-ethylbenzthiazoline-6-sulfonic acid) (ABTS, US Biological) is a commonly used substrate for HRP, giving a water-soluble blue-green color in the presence of HRP and hydrogen peroxide. The formation of the bluegreen color can be followed at 405 nm, with higher slopes indicating the presence of higher amounts of HRP.

[4] = tested on: Staphylococcus aureus, Streptococcus pyogenes, Escherichia coli (E. coli), Pseudomonas aeruginosa, and Enterococcus faecalis; experiment: HRP release from GV2-HRP beads, specificity against other common pathogens; assay type: biochemical; conditions: five minutes, FIG. 11
Description: as §2, with “The formation of the bluegreen color can be followed at 405 nm, with higher slopes indicating the presence of higher amounts of HRP.” left out
as §1

## TPIQIHTILH (Peptide Substrate of Candida spp.) [G11]
C. albicans [1]
  ability to detect C. albicans: able to detect C. albicans; also recorded: able to detect Candida albicans
C. albicans [2]
  identified as peptide target for C. albicans: peptide targets for C. albicans

## ITTTSSKHEHC (Peptide Substrate of Lactobacillus acidophilus) [peptide substrate detecting a protease from Lactobacillus]
[3]
  detection of protease from Lactobacillus: detects an unknown protease; also recorded: detects an unidentified protease

## PFINETYAKFC (also: Affigel bead and HRP conjugate) [GV2]
Gardnerella vaginalis
  HRP release / color change with H2O2 and ABTS substrate: quite specific for G. vaginalis; also recorded: turns blue; also recorded: detects unidentified protease from G. vaginalis
Gardnerella vaginalis; listed as PFINETYAKFC
  HRP release / color change with H2O2 and ABTS substrate: color change was observed quickly
E. coli
  HRP release signal (ABTS, 405 nm): small amount of signal
[4]
  color change (HRP release, ABTS, 405 nm) with other common pathogens: not in the presence of other common pathogens
